Reference: US9073875B2, “Compounds useful as inhibitors of indoleamine 2,3-dioxygenase” (Vertex Pharmaceuticals Incorporated, priority 2012, dated 2015)

Molecular target: T1, IDO1 (Homo sapiens, UniProt P14902)
T1 construct: HeLa cells in which IDO1 expression is induced by IFN-γ; endogenous in cells; host or cells: HeLa cells stimulated with human recombinant IFN-γ
Test: Cellular IDO1 Inhibition Assay (L-kynurenine production by IFN-γ-stimulated HeLa cells)
Type: cell-based
Settings: IDO1 induced by IFN-γ, 250 μM L-tryptophan, 48 hours, L-kynurenine by Ehrlich's reagent, maximal concentration 40 μM
Experimental: Compounds can be screened for their ability to inhibit intracellular IDO1 activity, by measuring the production of L-kynurenine by HeLa cells in which IDO1 expression is induced by IFN-γ. Kynurenine levels can be determined by chemical conversion of L-kynurenine with Ehrlich's reagent (Yue et. al., J Med Chem 2009 Dec. 10; 52(23):7364-7).
HeLa cells were plated at 20,000 cells per well in 96-well culture plates (Costar 3598) in DMEM (Sigma D5671) supplemented with 10% fetal bovine serum (SAFC Biosciences 12003C), Penicillin/Streptomycin solution diluted 1:100 (Sigma P7539), 4 mM L-glutamine (Sigma G7513), 1% Non Essential Aminoacids (Sigma M7145) and 1 mM Sodium Pyruvate (Sigma S8636). Cells were allowed to adhere for 24 hours at 37° C. in 5% CO2. Subsequently compounds were first serially diluted 1/3 in DMSO then further diluted in media and finally added to the cells, giving a maximal final concentration of 40 μM. Additional medium containing L-tryptophan to a final concentration of 250 μM (Sigma T0254) and human recombinant IFN-γ (R&D Systems 285-IF) were added to the wells to stimulate IDO1 production. Cells were incubated at 37° C. in 5% CO2 for 48 hours.
For the measurement of L-kynurenine in HeLa supernatants, plates were centrifuged at 1000 RPM for 5 minutes and 140 μl of media transferred into a polypropylene 96 well plate (Costar 3879) containing 10 μl of 26% Trichloroacetic Acid in water (Sigma T9159). Plates were then sealed using a plate sealer (PlateLoc, Agilent Technology) and incubated at 50° C. for 30 minutes. Plates were centrifuged at 2400 RPM for 10 minutes and 100 μl of media transferred to polystyrene 96-well plates together with 100 μl of Ehrlich's reagent (2% p-Dimethylaminobenzaldehyde, (Sigma D2004) in acetic acid (Fisher, A/400/PB17)). Following the addition of Ehrlich's reagent the absorbance at 490 nm was read using a spectrophotometer (Spectramax Plus, Molecular Devices). Kynurenine levels were plotted against compound concentrations to generate dose response curves and obtain […] values for each active compound using Genedata Screener® Software.
Cellular […] values for each compound may be found in Table 2, below, wherein A=<0.1 μM; B=0.1 μM-1 μM; and C=1 μM-40 μM.

T1 sequence (P14902 whole entry): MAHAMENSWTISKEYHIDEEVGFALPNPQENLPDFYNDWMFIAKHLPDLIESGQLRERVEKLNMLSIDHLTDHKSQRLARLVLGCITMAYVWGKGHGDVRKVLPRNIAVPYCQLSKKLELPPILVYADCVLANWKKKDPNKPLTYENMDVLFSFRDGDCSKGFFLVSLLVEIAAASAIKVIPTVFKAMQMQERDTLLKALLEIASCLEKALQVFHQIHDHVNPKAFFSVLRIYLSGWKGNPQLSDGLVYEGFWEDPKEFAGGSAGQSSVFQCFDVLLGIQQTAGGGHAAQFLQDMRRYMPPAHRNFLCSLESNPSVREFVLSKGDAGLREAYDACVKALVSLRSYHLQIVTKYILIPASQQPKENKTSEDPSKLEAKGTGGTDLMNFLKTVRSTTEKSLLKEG

| SMILES | IC50 [µM] |
| --- | --- |
| CCc1cc(Cl)ccc1Nc1cnn[nH]1 [Compound I-1] | < 0.1 |
| Clc1ccc(Nc2cn[nH]n2)cc1 [Compound I-2] | < 0.1 |
| Brc1ccc(Nc2c[nH]nn2)cc1 [Compound I-3] | < 0.1 |
| COCc1cc(Cl)ccc1Nc1cnn[nH]1 [Compound I-4] | < 0.1 |
| Cc1cc(Cl)ccc1Nc1c[nH]nn1 [Compound I-5] | < 0.1 |
| COCCc1cc(Cl)ccc1Nc1cn[nH]n1 [Compound I-6] | < 0.1 |
| CCc1cc(Nc2cnn[nH]2)ccc1Cl [Compound I-7] | 0.1 to 1 |
| COc1cc(Nc2cn[nH]n2)ccc1Cl [Compound I-8] | 0.1 to 1 |
| OCc1cc(Cl)ccc1Nc1cnn[nH]1 [Compound I-9, (2-((2H-1,2,3-triazol-4-yl)amino)-5-chlorophenyl)methanol] | 0.1 to 1 |
| Clc1ccc(Nc2c[nH]nn2)c(OCCN2CCOCC2)c1 [Compound I-10] | 0.1 to 1 |
| Clc1cccc(Nc2cnn[nH]2)c1 [Compound I-11] | 0.1 to 1 |
| COc1cc(Cl)ccc1Nc1cn[nH]n1 [Compound I-12] | 0.1 to 1 |
| Fc1ccc(Nc2cnn[nH]2)cc1Cl [Compound I-13, N-(3-chloro-4-fluorophenyl)-2H-1,2,3-triazol-4-amine] | 0.1 to 1 |
| Fc1cc(Nc2c[nH]nn2)ccc1Cl [Compound I-14] | 0.1 to 1 |
| Cc1cc(Cl)cc(C)c1Nc1cnn[nH]1 [Compound I-15] | 0.1 to 1 |
| Clc1cc(Cl)cc(Nc2cn[nH]n2)c1 [Compound I-16] | 0.1 to 1 |
| CNS(=O)(=O)CCc1cc(Cl)ccc1Nc1cnn[nH]1 [Compound I-17] | 0.1 to 1 |
| Fc1ccc(Nc2cnn[nH]2)cc1Br [Compound I-18] | 0.1 to 1 |
| Clc1ccc(Nc2cnn[nH]2)cc1Cl [Compound I-19] | 0.1 to 1 |
| CC(=O)NCc1cc(Cl)ccc1Nc1cnn[nH]1 [Compound I-20, N-(2-((2H-1,2,3-triazol-4-yl)amino)-5-chlorobenzyl)acetamide] | 0.1 to 1 |
| CS(=O)(=O)NCc1cc(Cl)ccc1Nc1cnn[nH]1 [Compound I-21] | 1 to 40 |
| Clc1ccc(Nc2cnn[nH]2)cn1 [Compound I-22, 6-chloro-N-(2H-1,2,3-triazol-4-yl)pyridin-3-amine] | 1 to 40 |
| CN(Cc1cc(Cl)ccc1Nc1c[nH]nn1)C(=O)OC(C)(C)C [Compound I-23] | 1 to 40 |
| Fc1ccc(Nc2cnn[nH]2)cc1 [Compound I-24] | 0.1 to 1 |

| SMILES | IC50 [µM] |
| --- | --- |
| Clc1ccc(Nc2cn[nH]n2)c(I)c1 [Compound I-25] | 1 to 40 |
| Clc1ccc(Nc2cnn[nH]2)c(Cl)c1 [Compound I-27] | 1 to 40 |
| O=C(O)C1CC(Cc2cc(Cl)ccc2Nc2cn[nH]n2)C1 (centres unmarked) [Compound I-28, 3-(2-((2H-1,2,3-triazol-4-yl)amino)-5-chlorobenzyl)cyclobutanecarboxylic acid] | 1 to 40 |
| Clc1ccccc1Nc1cnn[nH]1 [Compound I-29] | 1 to 40 |
| Fc1cc(Cl)ccc1Nc1cnn[nH]1 [Compound I-30] | 1 to 40 |
| O=C(O)CCc1cc(Cl)ccc1Nc1cn[nH]n1 [Compound I-31] | 1 to 40 |
| CC(C)C(Cc1cc(Cl)ccc1Nc1cn[nH]n1)C(=O)O (centres unmarked) [Compound I-32] | 1 to 40 |
| CC(C)(Cc1cc(Cl)ccc1Nc1cn[nH]n1)C(=O)O [Compound I-33, 3-(2-((2H-1,2,3-triazol-4-yl)amino)-5-chlorophenyl)-2,2-dimethylpropanoic acid] | 1 to 40 |
| NCc1cc(Cl)ccc1Nc1cnn[nH]1 [Compound I-34, N-(2-(aminomethyl)-4-chlorophenyl)-2H-1,2,3-triazol-4-amine] | 1 to 40 |
| CC(C)(C)C(Cc1cc(Cl)ccc1Nc1cn[nH]n1)C(=O)O (centres unmarked) [Compound I-35] | 1 to 40 |
| Cc1cc(F)ccc1Nc1c[nH]nn1 [Compound I-36, N-(4-fluoro-2-methylphenyl)-2H-1,2,3-triazol-4-amine] | < 0.1 |
| Brc1cccc(Nc2cn[nH]n2)c1 [Compound I-37] | 0.1 to 1 |
| Cc1cc(Nc2cnn[nH]2)ccc1Cl [Compound I-38] | 0.1 to 1 |
| Cc1c(Cl)cccc1Nc1cnn[nH]1 [Compound I-39] | 0.1 to 1 |
| C=Cc1cc(Cl)ccc1Nc1cnn[nH]1 [Compound I-40] | < 0.1 |
| Cc1cc(Cl)cc(Nc2cnn[nH]2)c1 [Compound I-41] | 0.1 to 1 |
| Cc1ccc(Cl)cc1Nc1cnn[nH]1 [Compound I-42] | < 0.1 |
| CN(C)S(=O)(=O)CCc1cc(Cl)ccc1Nc1cnn[nH]1 [Compound I-43] | 0.1 to 1 |
| N#Cc1cc(Nc2cn[nH]n2)ccc1Cl [Compound I-44, 5-((2H-1,2,3-triazol-4-yl)amino)-2-chlorobenzonitrile] | 0.1 to 1 |
| Fc1cccc(Nc2cnn[nH]2)c1 [Compound I-45, N-(3-fluorophenyl)-2H-1,2,3-triazol-4-amine] | 0.1 to 1 |
| Clc1ccc(Nc2cnn[nH]2)c(CCN2CCOCC2)c1 [Compound I-46] | 0.1 to 1 |
| Clc1ccc(Nc2cnn[nH]2)c(CCCN2CCOCC2)c1 [Compound I-47] | 0.1 to 1 |
| CN1CCN(CCOc2cc(Cl)ccc2Nc2cnn[nH]2)CC1 [Compound I-48] | 0.1 to 1 |
